The experiment has as its target human 11β-HSD1 microsome fraction (Homo sapiens, UniProt P28845). The experiment in a line: Enzymatic 11Beta-HSD1 test (SPA-based detection). It counts as biochemical. The settings on record: human 11β-HSD1 microsomes, [1,2-3H]-cortisone, NADPH, 37° C. 1 hour. The protocol: Enzymatic 11Beta-HSD1 Test:
To measure the activity of the compounds, an SPA-based detection method (Solly et al. 2005) was employed. First of all, 20 μl of the human 11β-HSD1 microsome fraction (0.2 μg of protein), prepared in 50 mM HEPES, 0.1% BSA (w/v), were applied to a plate with 384 wells. The test compounds (0.09 μl) were applied to the assay plate in 100% DMSO. The reaction was started by addition of 20 μl of [1,2-^3H]-cortisone (0.1 μCi/[…]) in assay buffer comprising 25 mM HEPES, 100 mM KCl, 5 mM NaCl, 2 mM MgCl2 and 0.25 mM NADPH. The plate was agitated at 37° C. for 1 hour. At the same time, a stop solution comprising 20 mg/ml SPA-PVT beads, 1.6 mg/ml monoclonal cortisol antibody and 0.01 mM SSR110887 (inhibitor from the Biovitrium patent) in 50 mM HEPES, 1 M NaCl and 1 M KCl was stirred at room temperature. To stop the reaction, 25 μl of the stop solution were added to each well. The plate was agitated gently at room temperature for 1 further hour and then centrifuged at 500 gav for 1 minute, in order that the SPA beads could settle out. The plate was then read in a Wallac-1450-Microbeta unit with a standard SPA program (counting time 1 min/well). The comparative compound was glycyrrhetinic acid.
Protein and radioactive substrate were dispensed with a Biomek FX unit (Beckman Coulter) for handling liquids. The test compounds were added with a Cybi-Well equipped with a 90 nl pin tool (CyBio).
Lit.: Solly S, Mundt S S, Zokian H J, Juy-Fang Ding G, Hermanowski-Vosatka A, Strulovici B and Zheng W. High-throughput screening of 11β-Hydroxysteroid dehydrogenase type 1 in scintillation proximity format. Assay Drug Dev Technol 2005; 3:377-384.

Chain of human 11β-HSD1 microsome fraction (P28845 whole entry): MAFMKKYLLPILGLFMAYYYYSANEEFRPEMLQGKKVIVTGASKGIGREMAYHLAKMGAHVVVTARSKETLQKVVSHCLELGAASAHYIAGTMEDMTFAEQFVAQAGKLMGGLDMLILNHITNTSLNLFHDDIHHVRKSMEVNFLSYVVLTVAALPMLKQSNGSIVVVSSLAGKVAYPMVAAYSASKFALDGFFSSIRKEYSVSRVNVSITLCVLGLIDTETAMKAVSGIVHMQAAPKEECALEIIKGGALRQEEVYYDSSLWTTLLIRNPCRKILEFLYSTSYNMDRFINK

Turning to `CC1(C)OC(NC23CC4CC(CC2C4)C3)=NS(=O)(=O)[C@H]1c1ccc(-c2cccc(C(=O)O)c2)cc1` [Example 1, 4′-[(S)-2-(Hexahydro-2,5-methanopentalen-3a-ylamino)-6,6-dimethyl-4,4-dioxo-5,6-dihydro-4H-4lambda6-[1,4,3]oxathiazin-5-yl]-biphenyl-3-carboxylic acid], inhibition was half-maximal at 14 nM (IC50).

As for `CC1(C)OC(NC23CC4CC(CC2C4)C3)=NS(=O)(=O)[C@H]1c1ccc(C2CCN(CCC(F)(F)F)CC2)cc1` [Example 2, ((S)-6,6-Dimethyl-4,4-dioxo-5-{4-[1-(3,3,3-trifluoropropyl)-piperidin-4-yl]phenyl}-5,6-dihydro-4H-4lambda6-[1,4,3]oxathiazin-2-yl)-(hexahydro-2,5-methanopentalen-3a-yl)amine], inhibition was half-maximal at 24 nM (IC50).

For the compound `CC1(C)OC(NC23CC4CC2CC(C(N)=O)(C4)C3)=NS(=O)(=O)[C@@H]1c1ccc(Br)cc1` (stereo partly drawn) [Example 3, 3a-[(R)-5-(4-Bromophenyl)-6,6-dimethyl-4,4-dioxo-5,6-dihydro-4H-4lambda6-[1,4,3]oxathiazin-2-ylamino]hexahydro-2,5-methanopentalene-2-carboxamide], half-maximal inhibition (IC50) required 22 nM.

On to `CC1(C)OC(NC23CC4CC2CC(C(N)=O)(C4)C3)=NS(=O)(=O)[C@@H]1c1ccc(-c2ccccc2)cc1` (stereo partly drawn) [Example 4, 3a-((R)-5-Biphenyl-4-yl-6,6-dimethyl-4,4-dioxo-5,6-dihydro-4H-4lambda6-[1,4,3]oxathiazin-2-ylamino)hexahydro-2,5-methane-pentalene-2-carboxamide], for which half-maximal inhibition (IC50) was put at 34 nM.
